Reference: patent US6649654B1, “Methods for identifying and using IKK inhibitors” (The Regents of the University of California, priority 1999, dated 2003)

Test system: NF-κB
Assay: NF-κB activation / DNA-binding activity by EMSA in stimulated HeLa cells
Type: cell-based, human
Conditions: HeLa cells stimulated with TNFα (PGA1: IL-1 or TNFα)
Procedure: (§1) Cells used in the experiments described herein were cultured in either RPMI 1640 (Jurkat cells) or DMEM (HeLa and COS cells), supplemented with 10% FBS and antibiotics. Cells were stimulated with either 25 ng/ml TPA, 20 ng/ml recombinant TNFα, or 10 ng/ml interleukin 1β (Sigma). PGA1, 15dPGJ2, T×B2, LTB4, AA and other PGs (Cayman) dissolved in ethanol were used as well, as known in the art (See e.g., Rossi et al., 94:746-750 [1997]). Controls received equal amounts of ethanol. Transfections were performed using Lipofectamine Plus (GIBCO) for HeLa and COS cells and DEAE-dextran (Sigma) for Jurkat cells. Xpress-tagged NIK, Xpress-tagged MEKK1, HA-tagged IKKα, and HA-tagged IKKβ were also used (See e.g., Zandi et al., Science 281:1360-1363 [1998]; and Delhase et al., Science 284:309-313 [1999]). COX2 and cPLA2 expression vectors were obtained from Dr. L. Feng (See also, Hirose et al., J. Am. Soc. Nephrol., 9:408-416 [1998]). PGD synthase was cloned from HT29 colon carcinoma cell line cDNA by PCR and subcloned into a pCDNA3 vector. Cells were lysed in buffer B (50 mM Tris-HCl, pH 7.5, 400 mM NaCl, 1 mM EDTA, 1 mM EGTA, 1% Triton, 0.5% NP-40, 10% glycerol, and supplemented with 20 mM β-glycerophosphate, 10 mM PNPP, […] 1 mM PMSF, 20 μg/ml aprotinin, 2.5 μg/ml leupeptin, 8.3 μg/ml bestatin, 1.7 μg/ml pepstatin, and 2 mM DTT).
Aliquots of total extracts (15 μg protein) in buffer B were incubated with a ^32P-labeled κB DNA, followed by analysis of DNA-binding activities by EMSA on 4% PAGE gels, as known in the art (See, Rossi et al., supra). Specificity of protein-DNA complexes was verified by supershift with polyclonal antibodies specific for p65 (Rel A).

| SMILES | effect on NF-κB activation |
| --- | --- |
| Cc1c(C)c2c(c(C)c1O)CCC(C)(COc1ccc(CC3SC(=O)NC3=O)cc1)O2 (stereo not drawn) [troglitazone, reference compound] | does not inhibit |

Target: T1, IKKβ (Homo sapiens, UniProt O14920)
T1 sequence (O14920 1-756): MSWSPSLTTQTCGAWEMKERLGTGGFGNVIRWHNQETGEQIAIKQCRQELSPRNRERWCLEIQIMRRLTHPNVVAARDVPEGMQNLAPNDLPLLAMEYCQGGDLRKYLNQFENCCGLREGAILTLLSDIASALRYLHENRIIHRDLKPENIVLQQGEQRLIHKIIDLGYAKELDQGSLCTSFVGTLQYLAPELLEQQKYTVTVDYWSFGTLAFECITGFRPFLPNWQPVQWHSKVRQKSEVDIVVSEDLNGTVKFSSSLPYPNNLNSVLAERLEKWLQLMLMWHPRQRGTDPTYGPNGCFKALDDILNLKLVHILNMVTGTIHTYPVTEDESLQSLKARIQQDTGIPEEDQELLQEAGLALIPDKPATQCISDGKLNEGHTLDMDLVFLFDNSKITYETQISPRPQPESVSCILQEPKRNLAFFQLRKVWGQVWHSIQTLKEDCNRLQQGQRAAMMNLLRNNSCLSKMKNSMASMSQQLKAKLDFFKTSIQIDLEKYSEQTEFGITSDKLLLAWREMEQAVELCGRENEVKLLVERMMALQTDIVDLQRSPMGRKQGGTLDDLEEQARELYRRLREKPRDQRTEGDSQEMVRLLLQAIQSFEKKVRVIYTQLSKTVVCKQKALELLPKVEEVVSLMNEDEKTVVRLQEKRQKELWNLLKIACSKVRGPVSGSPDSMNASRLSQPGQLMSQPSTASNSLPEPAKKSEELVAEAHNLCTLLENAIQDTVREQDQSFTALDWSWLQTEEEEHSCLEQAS
Assay: not given
Parameters: FLAG; made in house; host or cells: Sf9 (baculovirus)
Conditions: high concentrations; Yin et al.; cited from earlier work

| SMILES | inhibition of IKKβ |
| --- | --- |
| CC(=O)Oc1ccccc1C(=O)O [aspirin] | inhibited |

Target: T2, IKK (Homo sapiens, UniProt O14920+O15111)
T2 sequence (O15111 whole entry, one chain of several): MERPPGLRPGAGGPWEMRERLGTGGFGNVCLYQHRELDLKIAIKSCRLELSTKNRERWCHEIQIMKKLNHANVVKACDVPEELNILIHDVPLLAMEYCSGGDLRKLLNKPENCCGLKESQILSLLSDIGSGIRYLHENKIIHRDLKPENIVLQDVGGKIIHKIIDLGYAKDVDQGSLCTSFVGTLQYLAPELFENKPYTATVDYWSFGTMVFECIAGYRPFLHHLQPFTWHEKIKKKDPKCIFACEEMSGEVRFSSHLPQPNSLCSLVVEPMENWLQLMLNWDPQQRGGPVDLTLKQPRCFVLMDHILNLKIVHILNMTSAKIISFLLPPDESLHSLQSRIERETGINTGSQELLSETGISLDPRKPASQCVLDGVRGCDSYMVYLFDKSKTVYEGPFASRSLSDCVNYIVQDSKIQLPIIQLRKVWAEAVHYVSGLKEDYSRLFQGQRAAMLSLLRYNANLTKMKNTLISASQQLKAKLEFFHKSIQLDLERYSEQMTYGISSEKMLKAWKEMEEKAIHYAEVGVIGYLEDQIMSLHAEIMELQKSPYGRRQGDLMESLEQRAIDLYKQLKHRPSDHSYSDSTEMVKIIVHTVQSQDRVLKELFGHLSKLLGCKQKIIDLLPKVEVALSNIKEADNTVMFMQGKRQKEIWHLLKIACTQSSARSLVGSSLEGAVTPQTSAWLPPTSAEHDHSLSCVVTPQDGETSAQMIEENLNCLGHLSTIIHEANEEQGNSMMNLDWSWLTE
T2 sequence (Q9Y6K9 whole entry partner, one chain of several): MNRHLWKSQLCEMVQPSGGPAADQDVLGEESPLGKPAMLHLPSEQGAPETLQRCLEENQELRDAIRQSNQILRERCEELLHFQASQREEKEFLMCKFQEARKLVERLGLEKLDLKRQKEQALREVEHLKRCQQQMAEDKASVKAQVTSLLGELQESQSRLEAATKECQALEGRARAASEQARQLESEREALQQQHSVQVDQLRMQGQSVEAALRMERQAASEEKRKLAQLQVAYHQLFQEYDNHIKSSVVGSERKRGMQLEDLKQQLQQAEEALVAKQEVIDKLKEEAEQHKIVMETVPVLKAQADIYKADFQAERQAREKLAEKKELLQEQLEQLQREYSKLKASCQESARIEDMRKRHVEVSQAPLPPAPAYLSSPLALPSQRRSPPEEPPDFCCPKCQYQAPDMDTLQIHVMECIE
Assay: Endogenous IKK activity (kinase assay) in treated, stimulated HeLa cells
Type: cell-based
Parameters: Endogenous IKK was immunoprecipitated from TNFα-stimulated HeLa cells; endogenous in cells; host or cells: HeLa
Conditions: HeLa cells, 50 μM (LTB4 1 μM, 15dPGJ2 5 μM) 2 hours, TNFα 10 minutes
Procedure: as §1
(§2) Cell lysates were incubated with anti-IKKα (Pharmingen), anti-HA (12CA5; Pharmingen), anti-JNK1 (333.8; Pharmingen), or anti-p38 (New England Biolabs) for 2 hours. Then, 15 μl protein A-Sepharose (Sigma) were added and the mixture was allowed to incubate for 1 hour. After extensive washing, kinase assays were performed as known in the art (See e.g., DiDonato et al., Nature 388:548-554 [1997]). Endogenous IKK, HA-tagged IKKα, endogenous JNK1, and p38 activities were determined with GST-1κBα(1-54), GST-c-Jun(1-79), and GST-ATF2 as substrates.
(§3) In this Example, experiments to determined the effects of arachidonic acid and its metabolites on IKK activity in vivo and in vitro are described. HeLa cells were treated with 50 μM AA, PGA1, PGB2, PGD2, PGE1, PGE2, PGF1α, or thromboxane B2 (T×B2), 1 μM LTB4, or 5 μM 15dPGJ2, for 2 hours in RPMI containing 10% FCS, and stimulated with TNFα for 10 minutes. Cell lysates were then assayed for endogenous IKK activity and recovery. In this FIGURE, “control” indicates unstimulated cells, and “-” indicates treatment with diluent alone. In addition, IKK was immunoprecipitated from TNFα-stimulated HeLA cells and incubated in vitro with 100 μM AA, PGA1, PGB2, PGD2, PGE1, PGE2, PGF1α, or T×B2, 2 μM LTB4 or 10 μM 15dPGJ2, followed by kinase assay and immunoblot analysis. In this FIGURE, “control” indicates to unstimulated cells, and “-”indicates 1% ethanol.

| SMILES | effect on IKK activity in vivo (cells), FIG. 5A |
| --- | --- |
| CCCCC[C@H](O)/C=C/C1=C(C/C=C\CCCC(=O)O)C(=O)CC1 [PGB2] | ineffective |
| CCCCC[C@H](O)/C=C/[C@H]1[C@H](O)CC(=O)[C@@H]1CCCCCCC(=O)O [PGE1] | ineffective |
| CCCCC[C@H](O)/C=C/[C@H]1[C@H](O)CC(=O)[C@@H]1C/C=C\CCCC(=O)O [PGE2] | ineffective |
| CCCCC[C@H](O)/C=C/[C@H]1C(=O)C[C@H](O)[C@@H]1C/C=C\CCCC(=O)O [PGD2] | ineffective |
| CCCCC[C@H](O)/C=C/[C@@H]1[C@@H](CCCCCCC(=O)O)[C@@H](O)C[C@H]1O [PGF1α] | ineffective |
| CCCCC[C@H](O)/C=C/[C@H]1OC(O)C[C@H](O)[C@@H]1C/C=C\CCCC(=O)O (stereo partly drawn) [thromboxane B2] | ineffective |
| CCCCC/C=C\C[C@@H](O)/C=C/C=C/C=C\[C@@H](O)CCCC(=O)O [leukotriene B4] | ineffective |
| CCCCC/C=C\C/C=C\C/C=C\C/C=C\CCCC(=O)O [Arachidonic acid, arachidonic acid] | ineffective |

Target: T2, IKK
Assay: In vitro kinase assay of IKK immunoprecipitated from TNFα-stimulated HeLa cells
Type: biochemical
Parameters: Endogenous IKK was immunoprecipitated from TNFα-stimulated HeLa cells; endogenous in cells; host or cells: HeLa
Conditions: immunoprecipitated IKK, 100 μM (LTB4 2 μM, 15dPGJ2 10 μM)
Procedure: as §2
Endogenous IKK was immunoprecipitated from TNFα-stimulated HeLa cells and the kinase activity determined in the presence of different concentrations of PGA1 (the results of which are shown in FIG. 2B) or 15dPGJ2 (the results of which are shown in FIG. 2C).
as §3
Many protein kinase inhibitors compete with binding of ATP, but preincubation in the presence of increasing concentrations of ATP had no effect on inhibition of IKKβ by 15dPGJ2, as indicated in FIG. 6A. […] The pellets were rinsed and kinase activity was measured.

| SMILES | effect on IKK activity in vitro, FIG. 5B |
| --- | --- |
| CCCCC[C@H](O)/C=C/C1=C(C/C=C\CCCC(=O)O)C(=O)CC1 [PGB2] | ineffective |
| CCCCC[C@H](O)/C=C/[C@H]1[C@H](O)CC(=O)[C@@H]1CCCCCCC(=O)O [PGE1] | ineffective |
| CCCCC[C@H](O)/C=C/[C@H]1[C@H](O)CC(=O)[C@@H]1C/C=C\CCCC(=O)O [PGE2] | ineffective |
| CCCCC[C@H](O)/C=C/[C@H]1C(=O)C[C@H](O)[C@@H]1C/C=C\CCCC(=O)O [PGD2] | ineffective |
| CCCCC[C@H](O)/C=C/[C@@H]1[C@@H](CCCCCCC(=O)O)[C@@H](O)C[C@H]1O [PGF1α] | ineffective |
| CCCCC[C@H](O)/C=C/[C@H]1OC(O)C[C@H](O)[C@@H]1C/C=C\CCCC(=O)O (stereo partly drawn) [thromboxane B2] | ineffective |
| CCCCC/C=C\C[C@@H](O)/C=C/C=C/C=C\[C@@H](O)CCCC(=O)O [leukotriene B4] | ineffective |
| CCCCC/C=C\C/C=C\C/C=C\C/C=C\CCCC(=O)O [Arachidonic acid, arachidonic acid] | ineffective |
